Measured values as given in US5403824A, “Methods for the treatment of osteoporosis” (The Procter & Gamble Company, priority 1993, dated 1995).

Tests used:
[1] = test system: Rat osteoblast-like cells (ROS 17/2.8); experiment: [3H]-thymidine incorporation, proliferation of osteoblast-like cells; assay type: cell-based; settings: ROS 17/2.8, 18 hrs incubation, 2 hrs pulse
Excerpt: Stimulation of osteoblast-like cell proliferation can be measured according to several art-recognized in vitro models. One such model is described in European Patent Publication No. 384,731, by Rodan et al, published Aug. 29, 1990, which is incorporated herein by reference. (Applicants have modified this method by reducing regent volumes to one-quarter those described and by utilizing Dulbecco's Modified eagle's Medium (DMEM).) In this model, proliferation (division) of, for example, rat osteoblast-like cells (rat osteosarcoma (ROS) cells, rat calvaria cells, etc.) is observed by measuring the amount of radiolabeled thymidine ([^3 H]thymidine) incorporated by these cells. ([^3 H]thymidine is "incorporated" by cellular DNA being synthesized as a result of cell proliferation.) The greater the level of [^3 H]thymidine measured, the greater the amount of proliferation of the osteoblast cells.
More specifically, a test sample (comprised of a test compound and osteoblast-like cells) and a control sample (comprised of only osteoblast-like cells) are pulsed with [^3 H]thymidine. The amount of [^3 H]thymidine incorporated by the cells is measured using a direct beta counter.
Rat osteoblast-like cells (ROS 17/2.8) are plated at 4×10^3 cells/well in a 96-well plate in Dulbecco's Modified eagle's Medium supplemented with 2% (v/v) Fetal Bovine Serum, and incubated for 6 hrs. Control (serum-free) medium and test medium (test sample and serum-free medium) are then added to the cells and this combination is incubated for 18 hrs. The cells are then pulsed with [^3 H]-thymidine (1 μCi/well) for 2 hrs. The medium is then removed, the cells are harvested onto glass fibre filters and the amount of [^3 H]-thymidine (counts per minute per well) incorporated into DNA is then determined using a direct beta counter. Values for control groups are then compared to values for treated groups.
(§1) The compound H-Tyr-D-Ala-Gly-Phe-D-Leu-OH ("DADLE") is screened to determine whether it stimulates proliferation of osteoblast-like cells. […] The medium is then removed, the cells are harvested onto glass fibre filters, and the amount of ^3 H-thymidine (counts per minute per well) incorporated into DNA is determined using a direct beta counter. […]
as §1, with “Tyr-D-Cys(S-t-butylthioether)-Gly-Phe-Leu-Thr(O-t-butylether) ("BUBUC")” for “H-Tyr-D-Ala-Gly-Phe-D-Leu-OH ("DADLE")”

[2] = test system: human subject with postmenopausal osteoporosis or low bone mass; experiment: treatment of human subject with osteoporosis, vertebral density by dual-energy photon absorptiometry; assay type: in vivo
Procedure: A human subject weighing about 60 kg (132 lbs), suffering from postmenopausal osteoporosis, is treated by a method of this invention. Specifically, for two years, the enkephalin-degrading enzyme inhibitor DL-3-mercapto-2-benzylpropanoylglycine is administered orally, in a cyclical regimen, where each cycle consists of an active period of 28 days during which a tablet containing 160 mg of said inhibitor is administered each day, followed by a non-active period of 28 days during which the subject receives a daily supplement of calcium (1,000 mg/day), with repeat of cycle.
A human subject weighing about 60 kg (132 lbs), suffering from postmenopausal osteoporosis, is treated by a method of this invention. Specifically, for two years, the compound H-Tyr-D-Ala-Gly-Phe-D-Leu-OH ("DADLE") is administered to the subject, in a cyclical regimen, where each cycle consists of an active period of 28 days during which a solution containing 30 mg of DADLE is administered intravenously every day, followed by a non-active period of 28 days during which the patient receives a daily supplement of calcium (1,000 mg/day), with repeat of cycle.
(§2) A human subject weighing about 60 kg (132 lbs), suffering from postmenopausal osteoporosis, is treated by a method of this invention. Specifically, for two years, an enkephalin of the formula Tyr-D-Cys(S-t-butylthioether)-Gly-Phe-Leu-Thr(O-t-butylether) ("BUBUC") is administered to the subject, in a cyclical regimen, where each cycle consists of an active period of 28 days during which a solution containing 30 mg of BUBUC is intravenously administered each day, followed by a non-active period of 28 days during which the patient receives a daily supplement of calcium (1,000 mg/day), with repeat of cycle.
as §2, with “years, the” for “years, an”, “enkephalin secretagogue Tyr-Arg^1,” for “enkephalin of the formula Tyr-D-Cys(S-t-butylthioether)-Gly-Phe-Leu-Thr(O-t-butylether) ("BUBUC")”, “of Tyr-Arg” for “of BUBUC”, “the subject” for “the patient”, “cycle. […]” for “cycle.”
A human subject weighing about 60 kg (132 lbs), suffering from postmenopausal osteoporosis, is treated by a method of this invention. Specifically, each day for five years, the subject is administered 3 tablets, comprised as follows.
A human subject weighing about 60 kg (132 lbs) is evaluated approximately four years after spontaneous menopause, and is found to have low bone mass. The subject is then treated by a method of this invention to treat osteoporosis. Specifically, once each month for five years, the subject is administered, via intravenous injection, 5 ml of a solution comprised as follows.

## O=C(O)CNC(=O)C(CS)Cc1ccccc1 (racemic) [DL-3-mercapto-2-benzyl-propanoylglycine]
[1]
  [3H]-thymidine incorporation (proliferation) vs control: significantly stimulated proliferation of the osteoblast-like cells
[2]; Example 7: 3 tablets of 50.0 mg each day for five years
  density of vertebrae / bone mass: no significant loss in bone mass has occurred
[2]; oral tablet 160 mg daily, 28 days active / 28 days calcium, two years
  density of vertebrae / bone mass: an increase in bone mass
